Assay results from patent US20190085013A1, “NUCLEOTIDE AND NUCLEOSIDE THERAPEUTIC COMPOSITIONS AND USES RELATED THERETO” (EMORY UNIVERSITY, priority 2016, published 2019).

How the values were obtained:
[1] = target: NS5B-621 from HCV GT-1b Con-1 (Hepatitis C virus genotype 1b, UniProt Q9WMX2); test: NS5B RNA-dependent RNA polymerase inhibition assay; format: biochemical; details: 1 μM NTP substrates including either [32P]-CTP or [32P]-UTP, columns not distinguished
Procedure: Compounds were assayed for inhibition of NS5B-621 from HCV GT-1b Con-1. Reactions included purified recombinant enzyme, 1 u/μL negative-strand HCV IRES RNA template, and 1 μM NTP substrates including either [^32P]-CTP or [^32P]-UTP. Assay plates were incubated at 27° C. for 1 hour before quench. [^32P] incorporation into macromolecular product was assessed by filter binding.

HCV Replicon 1a-H77 = test: HCV replicon GT-1a luciferase assay; format: cell-based; details: Hepatitis C virus, GT1A, GT-1a H77 replicon
HCV Replicon 1b-Con1 = test: HCV replicon GT-1b luciferase assay; format: cell-based; details: Hepatitis C virus, GT1B, read-out: HCV Replicon 1b-Con1 EC50
Source text: Cell Culture—The reporter cell line Huh-luc/neo-ET was obtained from Dr. Ralf Bartenschlager (Department of Molecular Virology, Hygiene Institute, University of Heidelberg, Germany) by ImQuest BioSciences through a specific licensing agreement. This cell line harbors the persistently replicating I389luc-ubi-neo/NS3-3′/ET replicon containing the firefly luciferase gene-ubiquitin-neomycin phosphotransferase fusion protein and EMCV IRES driven NS3-5B HCV coding sequences containing the ET tissue culture adaptive mutations (E1202G, Tl2081, and K1846T). A stock culture of the Huh-luc/neo-ET was expanded by culture in DMEM supplemented with I 0% FCS, 2 mM glutamine, penicillin ([…])/streptomycin (100 μg/mL) and I× nonessential amino acids plus 1 mg/mL G418. The cells were split 1:4 and cultured for two passages in the same media plus 250 μg/mL G418. […] 5% C02 then anti-HCV activity was measured by luciferase endpoint. […]
Measurement of Virus Replication-HCV replication from the replicon assay system was measured by luciferase activity using the britelite plus luminescence reporter gene kit according to the manufacturer's instructions (Perkin Elmer, Shelton, Conn.). […] The well contents were transferred to a white 96-well plate and luminescence was measured within 15 minutes using the Wallac 1450Microbeta Trilux liquid scintillation counter. […]

| Compound | IC50 ([1]; first IC50 column) [µM] | IC50 ([1]; second IC50 column) [µM] | EC50 (HCV Replicon 1a-H77) [µM] | EC50 (HCV Replicon 1b-Con1) [µM] |
| --- | --- | --- | --- | --- |
| O=c1ccn([C@@H]2O[C@H](COP(=O)(O)OP(=O)(O)OP(=O)(O)O)[C@@H](O)[C@]2(O)CF)c(=O)[nH]1 [DRIVE-0060] | 1 | 13.4 |  |  |
| CC(C)OC(=O)[C@H](C)N[P@](=O)(OC[C@H]1O[C@@H](n2ccc(=O)[nH]c2=O)[C@@](O)(CF)[C@@H]1O)Oc1ccccc1 [DRIVE-0087] |  |  | 0.54 | 0.75 |
